Values joined by “and” are separate entries in the source; they are usually repeats but may differ in a detail not shown here. Identical values can stand only once. Marks after values point to notes of the source that are not given here.
Key:
[1] = Half-life in the blood plasma of humans; assay type: in vivo; conditions: human
Description: The measurement is determined by calculating the half-life of a nucleotide synthesis inhibitor in the blood of a mammal, which is relevant for pharmacokinetic ratios in humans, or in humans in phase I clinical trial development, and comparing it with that of a known nucleotide synthesis inhibitor. The term “half-life” is understood as meaning the time in which the concentration of the nucleotide synthesis inhibitor in the blood plasma is halved. This invention for finding nucleotide synthesis inhibitors which have lower side effects therefore includes

[2] = test system: Lewis rats; assay: Tolerability of constant (mini-infusion pump) versus pulse-like (oral) blood levels (Example 5); assay type: in vivo, rat
Description: In order to attain constant blood levels, a mini-infusion pump was subcutaneously implanted into experimental animals. The mini-infusion pumps contained 2 ml of a 15% strength ethanolic solution of compound 1, which was continuously released over 28 days. Doses of 2.5, 5, 10 and 25 mg/kg/day were employed. For comparison, animals which received the same daily doses of the compound 1, but administered orally, were implanted with mini-infusion pumps; these, however, were filled with only the vehicle (15% ethanol in water). A 1% strength CMC was additionally administered orally to animals which received the compound 1 via mini-infusion pumps. The survival of the animals was taken as a course parameter. Additionally, blood was taken on day 5 and day 27 in order to determine the blood levels of compound 1. Blood was taken from animals 4 hours after oral administration of compound 1. The group was comprised of 6 male Lewis rats having a body weight of approximately 210 g. Corresponding to the preceding experiments, adjuvant arthritis was induced in the animals on day 5.
For the attainment of constant blood levels of compound 1, the animals were implanted subcutaneously with a mini-infusion pump which supplied compound 1 to the animals continuously for 28 days. By means of this pump, constant blood levels of compound 1 were attained. Thus long half-lives of compound 1, such as are observed in humans, were simulated.
For the comparison group, animals were treated with the identical daily dose of compound 1, but received the substance orally rather than by mini-infusion pump.
In this experiment, the tolerability of the compound 1 with a short half-life (compound 1 orally administered) was compared with the tolerability of the compound 1 with a long half-life (compound 1 by pump with a constant infinite half-life). The doses employed were 2.5 mg/kg/day, 5 mg/kg/day, 10 mg/kg/day and 25 mg/kg/day. The number of animals surviving the treatment was used as a measure of the tolerability. The tolerability was moreover compared with respect to the observed blood levels.

[3] = test system: adjuvant-induced arthritis; assay: Adjuvant-induced arthritis model, dose-response relationship (Example 1); assay type: in vivo; conditions: for Increase in body weight / Reduction in arthritis score / Reduction in paw swelling / Surviving animals: day 21
Source text: The dose-response relationship of N-(4-trifluoromethylphenyl)-2-cyano-3-hyroxycrotonamide, hereafter referred to as compound 1, was drawn up in the adjuvant-induced arthritis model (method of Pearson C. M. and Wood F. D.; Arth. Rheum. 2: 44 (1959), and Taurog J. D., Argentieri D. C. et al., Meth. Enzymol. 162: 339 (1988)). The swelling of the paws, the formation of generalized symptoms of arthritis, know as the score index, the increase in the body weight during the experiment, and the survival of the animals were determined.
Compound 1 was administered orally from the start of the experiment onwards up to the end on day 21 in a 1% strength carboxymethlcellulose solution, (CMC). The control groups received corresponding amounts of 1% CMC without the active compound.
Six male Lewis rats having a body weight of approximately 210 g were employed in each experimental group.
Negative numbers indicate the worsening of the respective measurement parameter.
In the adjuvant-induced arthritis model in the rat, autoimmune reactions are observed which correspond to the autoimmune diseases of the rheumatic type in humans.

C/C(O)=C(\C#N)C(=O)Nc1ccc(C(F)(F)F)cc1 [compound 1, N-(4-trifluoromethylphenyl)-2-cyano-3-hydroxycrotonamide]
half-life [1]: ≤ 14.6 days
half-life ([1]; approximately): ~14 days
Body weight increase ([2]; 2.5 mg/kg/day mini-infusion): +22%
Compound 1 blood plasma level (day 5) ([2]; 2.5 mg/kg/day mini-infusion): 2.05 μg/ml ±
Compound 1 blood plasma level (day 27) ([2]; 2.5 mg/kg/day mini-infusion): 2.34 μg/ml ±
Surviving animals ([2]; 2.5 mg/kg/day mini-infusion): 100%
Body weight increase ([2]; 2.5 mg/kg/day p.o.): +29%
Surviving animals ([2]; 2.5 mg/kg/day p.o.): 100%
Body weight increase ([2]; 5 mg/kg/day mini-infusion): +26%
Compound 1 blood plasma level (day 5) ([2]; 5 mg/kg/day mini-infusion): 3.57 μg/ml ±
Compound 1 blood plasma level (day 27) ([2]; 5 mg/kg/day mini-infusion): 4.18 μg/ml ±
Surviving animals ([2]; 5 mg/kg/day mini-infusion): 100%
Body weight increase ([2]; 5 mg/kg/day p.o.): +25%
Surviving animals ([2]; 5 mg/kg/day p.o.): 100%
Compound 1 blood plasma level (day 5) ([2]; 5 mg/kg/day p.o., 4 hours after oral administration): 14.31 µg/µg/mL
Body weight increase ([2]; 10 mg/kg/day mini-infusion): +29%
Compound 1 blood plasma level (day 5) ([2]; 10 mg/kg/day mini-infusion): 4.55 μg/ml ±
Compound 1 blood plasma level (day 27) ([2]; 10 mg/kg/day mini-infusion): 6.72 μg/ml ±
Surviving animals ([2]; 10 mg/kg/day mini-infusion): 100%
Body weight increase ([2]; 10 mg/kg/day p.o.): +27%
Surviving animals ([2]; 10 mg/kg/day p.o.): 100%
Compound 1 blood plasma level (day 27) ([2]; 10 mg/kg/day p.o., 4 hours after oral administration): 34.35 μg/ml and 34.35 μg/ μg/ml
Surviving animals ([2]; 25 mg/kg/day mini-infusion): 17%
blood plasma levels, extrapolated from the values at lower doses ([2]; 25 mg/kg/day mini-infusion pump): ≤ 15 µg/mL
Body weight increase ([2]; 25 mg/kg/day mini-infusion, determined in one surviving animal only): +13%*
survival ([2]; 25 mg/kg/day orally administered): all animals
Body weight increase ([2]; 25 mg/kg/day p.o.): −2%
Surviving animals ([2]; 25 mg/kg/day p.o.): 100%
therapeutic action ([3]; 1 mg/kg/day): an action could no longer be determined
Increase in body weight ([3]; 1 mg/kg/day orally): 10%
Reduction in arthritis score ([3]; 1 mg/kg/day orally): −11%
Reduction in paw swelling ([3]; 1 mg/kg/day orally): −9%
Surviving animals ([3]; 1 mg/kg/day orally): 100%
Increase in body weight ([3]; 2.5 mg/kg/day orally): 20%
Reduction in arthritis score ([3]; 2.5 mg/kg/day orally): 70%
Reduction in paw swelling ([3]; 2.5 mg/kg/day orally): 78%
Surviving animals ([3]; 2.5 mg/kg/day orally): 100%
Increase in body weight ([3]; 5 mg/kg/day orally): 37%
Reduction in arthritis score ([3]; 5 mg/kg/day orally): 83%
Reduction in paw swelling ([3]; 5 mg/kg/day orally): 96%
Increase in body weight ([3]; 7.5 mg/kg/day orally): 25%
Reduction in arthritis score ([3]; 7.5 mg/kg/day orally): 87%
Reduction in paw swelling ([3]; 7.5 mg/kg/day orally): 105%
Increase in body weight ([3]; 10 mg/kg/day orally): 11%
Reduction in arthritis score ([3]; 10 mg/kg/day orally): 84%
Reduction in paw swelling ([3]; 10 mg/kg/day orally): 96%
Increase in body weight ([3]; 15 mg/kg/day orally): 8%
Reduction in arthritis score ([3]; 15 mg/kg/day orally): 91%
Reduction in paw swelling ([3]; 15 mg/kg/day orally): 106%
Increase in body weight ([3]; 25 mg/kg/day orally): −2%
Reduction in arthritis score ([3]; 25 mg/kg/day orally): 96%
Reduction in paw swelling ([3]; 25 mg/kg/day orally): 114%
lowest efficacious dose ([3]; orally once daily, adjuvant-induced arthritis, rat): 2.5 mg/kg/day
